According to patent US6534070B1, “Composition with azelaic acid” (Schering Aktiengesellschaft, priority 1997, dated 2003):

Assay type: in vitro ADME, hairless mice (MF1 hr/hr Ola/Hsd)
Conditions: MF1 hr/hr Ola/Hsd (hairless), mouse, 24 h
From the text: The percutaneous resorption of azelaic acid was examined from hydrogel formulations according to the invention in comparison to Skinoren^(R) cream. The purpose of the study was to describe the bioavailability of azelaic acid in the skin, the penetration of azelaic acid through the skin and the dermal metabolism of azelaic acid. In this respect, various preparations that contain ^14C-labeled azelaic acid were applied in the in vitro model of the FRANZ diffusion chamber on the intact complete skin of hairless mice (MF1 hr/hr Ola/Hsd; supplier: Winkelmann, Germany). An amount of 10 to 15 mg of the following compositions was applied to a skin area of 2 cm^2:
The time behavior of the ^14C-azelaic acid was measured in the acceptor medium (Hepes Hanks Balanced Salt Solution: HHBSS), which flows along under the skin, at two-hour intervals over a period of 24 hours. In addition, at the end of each experiment, the radioactivity on the skin surface, in the stratum corneum and in the remaining skin was determined. […]
The ^14C-azelaic acid found in the skin at the end of the experiment was metabolized only to a proportion of 3 to 11%. Therefore, the data on the radioactivity in the skin can virtually be equated to the concentration of unchanged azelaic acid.

proportion of 14C-azelaic acid found in the skin that was metabolized: 3 to 11%
Compound: O=C(O)CCCCCCCC(=O)O [^14C-azelaic acid, azelaic acid]
